Reference: the supplement of paper PMC10733146

How the values were obtained:
Experiment in all cases: viability relative to DMSO control (fraction); higher = less drug effect (more viable cells)
Settings in all cases: 48 h
[1] = system: primary MCL patient cells (S041)
In short: (§1)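 Compounds were pre-plated at five concentrations, one well each, in 384-well plates, and primary mononuclear tumour cells were plated on them at 4 × 10^4 cells per well. The cells, fresh or cryopreserved, had been Ficoll-isolated from blood or bone marrow or taken from processed lymph node. After 48 h at 37 °C and 5% CO2 in RPMI-1640 with penicillin/streptomycin, L-glutamine and human serum, viability was read as CellTiter-Glo luminescence relative to the median of 16 inner DMSO wells.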

[2] = system: primary AML patient cells (S012)
In short: as §1

[3] = system: primary AML patient cells (S021)
In short: as §1

[4] = system: primary FL patient cells (S087)
In short: as §1

[5] = system: primary MCL patient cells (S053)
In short: as §1

[6] = system: primary AML patient cells (S037)
In short: as §1

[7] = system: primary T-PLL patient cells (S008)
In short: as §1

[8] = system: primary BL patient cells (S005)
In short: as §1

[9] = system: primary AML patient cells (S002)
In short: as §1

[10] = system: primary AML patient cells (S009)
In short: as §1

[11] = system: primary B-PLL patient cells (S016)
In short: as §1

[12] = system: primary MCL patient cells (S068)
In short: as §1

[13] = system: primary AML patient cells (S085)
In short: as §1

[14] = system: primary FL patient cells (S022)
In short: as §1

[15] = system: primary AML patient cells (S019)
In short: as §1

[16] = system: primary AML patient cells (S017)
In short: as §1

[17] = system: primary AML patient cells (S081)
In short: as §1

[18] = system: primary AML patient cells (S091)
In short: as §1

[19] = system: primary AML patient cells (S011)
In short: as §1

[20] = system: primary AML patient cells (S025)
In short: as §1

## C/C=C1\NC(=O)[C@H]2CSSCC/C=C/[C@H](CC(=O)N[C@H](C(C)C)C(=O)N2)OC(=O)[C@H](C(C)C)NC1=O [Romidepsin]
[1]; 0.00032 µM
  viability: 0.932
[1]; 0.0016 µM
  viability: 0.817
[1]; 0.008 µM
  viability: 0.222
[1]; 0.04 µM
  viability: 0.175
[1]; 0.2 µM
  viability: 0.194
[2]; 0.00032 µM
  viability: 1.1
[2]; 0.0016 µM
  viability: 1.01
[2]; 0.008 µM
  viability: 0.722
[2]; 0.04 µM
  viability: 0.0806
[2]; 0.2 µM
  viability: 0.0665
[3]; 0.00032 µM
  viability: 0.88
[3]; 0.0016 µM
  viability: 0.789
[3]; 0.008 µM
  viability: 0.353
[3]; 0.04 µM
  viability: 0.269
[3]; 0.2 µM
  viability: 0.222
[4]; 0.00032 µM
  viability: 0.978
[4]; 0.0016 µM
  viability: 0.911
[4]; 0.008 µM
  viability: 0.642
[4]; 0.04 µM
  viability: 0.498
[4]; 0.2 µM
  viability: 0.527
[5]; 0.00032 µM
  viability: 0.951
[5]; 0.0016 µM
  viability: 0.191
[5]; 0.008 µM
  viability: 0.0849
[5]; 0.04 µM
  viability: 0.0845
[5]; 0.2 µM
  viability: 0.0907
[6]; 0.00032 µM
  viability: 1.06
[6]; 0.0016 µM
  viability: 0.911
[6]; 0.008 µM
  viability: 0.554
[6]; 0.04 µM
  viability: 0.516
[6]; 0.2 µM
  viability: 0.508
[7]; 0.00032 µM
  viability: 1.02
[7]; 0.0016 µM
  viability: 0.895
[7]; 0.008 µM
  viability: 0.738
[7]; 0.04 µM
  viability: 0.772
[7]; 0.2 µM
  viability: 0.758
[8]; 0.00032 µM
  viability: 1
[8]; 0.0016 µM
  viability: 0.948
[8]; 0.008 µM
  viability: 0.63
[8]; 0.04 µM
  viability: 0.564
[8]; 0.2 µM
  viability: 0.538
[9]; 0.00032 µM
  viability: 1.12
[9]; 0.0016 µM
  viability: 0.73
[9]; 0.008 µM
  viability: 0.283
[9]; 0.04 µM
  viability: 0.265
[9]; 0.2 µM
  viability: 0.287
[10]; 0.00032 µM
  viability: 1.02
[10]; 0.0016 µM
  viability: 0.614
[10]; 0.008 µM
  viability: 0.308
[10]; 0.04 µM
  viability: 0.24
[10]; 0.2 µM
  viability: 0.199
[11]; 0.00032 µM
  viability: 0.91
[11]; 0.0016 µM
  viability: 0.807
[11]; 0.008 µM
  viability: 0.0756
[11]; 0.04 µM
  viability: 0.055
[11]; 0.2 µM
  viability: 0.073
[12]; 0.00032 µM
  viability: 0.904
[12]; 0.0016 µM
  viability: 0.298
[12]; 0.008 µM
  viability: 0.118
[12]; 0.04 µM
  viability: 0.0914
[12]; 0.2 µM
  viability: 0.0996
[13]; 0.00032 µM
  viability: 1.04
[13]; 0.0016 µM
  viability: 0.817
[13]; 0.008 µM
  viability: 0.103
[13]; 0.04 µM
  viability: 0.0584
[13]; 0.2 µM
  viability: 0.0681
[14]; 0.00032 µM
  viability: 0.968
[14]; 0.0016 µM
  viability: 0.84
[14]; 0.008 µM
  viability: 0.543
[14]; 0.04 µM
  viability: 0.263
[14]; 0.2 µM
  viability: 0.206
[15]; 0.00032 µM
  viability: 1
[15]; 0.0016 µM
  viability: 0.996
[15]; 0.008 µM
  viability: 0.52
[15]; 0.04 µM
  viability: 0.417
[15]; 0.2 µM
  viability: 0.434
[16]; 0.00032 µM
  viability: 1.02
[16]; 0.0016 µM
  viability: 0.866
[16]; 0.008 µM
  viability: 0.29
[16]; 0.04 µM
  viability: 0.302
[16]; 0.2 µM
  viability: 0.332
[17]; 0.00032 µM
  viability: 0.976
[17]; 0.0016 µM
  viability: 0.947
[17]; 0.008 µM
  viability: 0.283
[17]; 0.04 µM
  viability: 0.0359
[17]; 0.2 µM
  viability: 0.0368
[18]; 0.00032 µM
  viability: 0.803
[18]; 0.0016 µM
  viability: 0.715
[18]; 0.008 µM
  viability: 0.169
[18]; 0.04 µM
  viability: 0.116
[18]; 0.2 µM
  viability: 0.117
[19]; 0.00032 µM
  viability: 0.935
[19]; 0.0016 µM
  viability: 0.727
[19]; 0.008 µM
  viability: 0.507
[19]; 0.04 µM
  viability: 0.373
[19]; 0.2 µM
  viability: 0.345
[20]; 0.00032 µM
  viability: 0.889
[20]; 0.0016 µM
  viability: 0.812
[20]; 0.008 µM
  viability: 0.299
[20]; 0.04 µM
  viability: 0.381
[20]; 0.2 µM
  viability: 0.441

## N#CC[C@H](C1CCCC1)n1cc(-c2ncnc3[nH]ccc23)cn1 [Ruxolitinib]
[1]; 0.024 µM
  viability: 1.02
[1]; 0.12 µM
  viability: 0.972
[1]; 0.6 µM
  viability: 0.997
[1]; 3 µM
  viability: 1.01
[1]; 15 µM
  viability: 0.952
[2]; 0.024 µM
  viability: 0.973
[2]; 0.12 µM
  viability: 0.973
[2]; 0.6 µM
  viability: 1.03
[2]; 3 µM
  viability: 0.951
[2]; 15 µM
  viability: 0.846
[3]; 0.024 µM
  viability: 0.919
[3]; 0.12 µM
  viability: 0.801
[3]; 0.6 µM
  viability: 0.844
[3]; 3 µM
  viability: 0.779
[3]; 15 µM
  viability: 0.723
[4]; 0.024 µM
  viability: 1.02
[4]; 0.12 µM
  viability: 0.929
[4]; 0.6 µM
  viability: 0.942
[4]; 3 µM
  viability: 0.962
[4]; 15 µM
  viability: 0.871
[5]; 0.024 µM
  viability: 1.03
[5]; 0.12 µM
  viability: 0.928
[5]; 0.6 µM
  viability: 1.02
[5]; 3 µM
  viability: 1.03
[5]; 15 µM
  viability: 0.831
[6]; 0.024 µM
  viability: 1.02
[6]; 0.12 µM
  viability: 0.956
[6]; 0.6 µM
  viability: 0.989
[6]; 3 µM
  viability: 0.97
[6]; 15 µM
  viability: 0.965
[7]; 0.024 µM
  viability: 0.966
[7]; 0.12 µM
  viability: 1.01
[7]; 0.6 µM
  viability: 0.97
[7]; 3 µM
  viability: 1.09
[7]; 15 µM
  viability: 0.952
[8]; 0.024 µM
  viability: 1.01
[8]; 0.12 µM
  viability: 1.18
[8]; 0.6 µM
  viability: 0.974
[8]; 3 µM
  viability: 1.15
[8]; 15 µM
  viability: 1.03
[9]; 0.024 µM
  viability: 0.982
[9]; 0.12 µM
  viability: 0.788
[9]; 0.6 µM
  viability: 0.851
[9]; 3 µM
  viability: 0.707
[9]; 15 µM
  viability: 0.646
[10]; 0.024 µM
  viability: 1.09
[10]; 0.12 µM
  viability: 1.01
[10]; 0.6 µM
  viability: 0.98
[10]; 3 µM
  viability: 1.02
[10]; 15 µM
  viability: 0.928
[11]; 0.024 µM
  viability: 1.16
[11]; 0.12 µM
  viability: 0.98
[11]; 0.6 µM
  viability: 1.08
[11]; 3 µM
  viability: 0.965
[11]; 15 µM
  viability: 0.894
[12]; 0.024 µM
  viability: 0.978
[12]; 0.12 µM
  viability: 0.987
[12]; 0.6 µM
  viability: 0.989
[12]; 3 µM
  viability: 1.05
[12]; 15 µM
  viability: 0.947
[13]; 0.024 µM
  viability: 1.42
[13]; 0.12 µM
  viability: 0.921
[13]; 0.6 µM
  viability: 0.861
[13]; 3 µM
  viability: 0.806
[13]; 15 µM
  viability: 0.651
[14]; 0.024 µM
  viability: 0.968
[14]; 0.12 µM
  viability: 0.882
[14]; 0.6 µM
  viability: 1.05
[14]; 3 µM
  viability: 0.908
[14]; 15 µM
  viability: 0.893
[15]; 0.024 µM
  viability: 1.09
[15]; 0.12 µM
  viability: 0.873
[15]; 0.6 µM
  viability: 1.03
[15]; 3 µM
  viability: 0.849
[15]; 15 µM
  viability: 0.716
[16]; 0.024 µM
  viability: 1.05
[16]; 0.12 µM
  viability: 1.03
[16]; 0.6 µM
  viability: 1.09
[16]; 3 µM
  viability: 1
[16]; 15 µM
  viability: 0.907
[17]; 0.024 µM
  viability: 1.02
[17]; 0.12 µM
  viability: 0.9
[17]; 0.6 µM
  viability: 0.951
[17]; 3 µM
  viability: 0.854
[17]; 15 µM
  viability: 0.817
[18]; 0.024 µM
  viability: 0.915
[18]; 0.12 µM
  viability: 1.09
[18]; 0.6 µM
  viability: 0.889
[18]; 3 µM
  viability: 1.12
[18]; 15 µM
  viability: 1.28
[19]; 0.024 µM
  viability: 1.26
[19]; 0.12 µM
  viability: 0.955
[19]; 0.6 µM
  viability: 1.06
[19]; 3 µM
  viability: 0.919
[19]; 15 µM
  viability: 0.743
[20]; 0.024 µM
  viability: 0.954
[20]; 0.12 µM
  viability: 0.962
[20]; 0.6 µM
  viability: 1.04
[20]; 3 µM
  viability: 1.02
[20]; 15 µM
  viability: 1.06
